Laboratory results published in the kinase profiling compilation of Christmann-Franck et al. (2016).

These compounds were tested against ALK (human) (UniProt Q9UM73) (assay: radiometric filter-binding kinase assay, Kinase HotSpot). Details: compound 0.5 µM; ATP 10 µM.
ALK (human), sequence (Q9UM73 whole entry, looked up): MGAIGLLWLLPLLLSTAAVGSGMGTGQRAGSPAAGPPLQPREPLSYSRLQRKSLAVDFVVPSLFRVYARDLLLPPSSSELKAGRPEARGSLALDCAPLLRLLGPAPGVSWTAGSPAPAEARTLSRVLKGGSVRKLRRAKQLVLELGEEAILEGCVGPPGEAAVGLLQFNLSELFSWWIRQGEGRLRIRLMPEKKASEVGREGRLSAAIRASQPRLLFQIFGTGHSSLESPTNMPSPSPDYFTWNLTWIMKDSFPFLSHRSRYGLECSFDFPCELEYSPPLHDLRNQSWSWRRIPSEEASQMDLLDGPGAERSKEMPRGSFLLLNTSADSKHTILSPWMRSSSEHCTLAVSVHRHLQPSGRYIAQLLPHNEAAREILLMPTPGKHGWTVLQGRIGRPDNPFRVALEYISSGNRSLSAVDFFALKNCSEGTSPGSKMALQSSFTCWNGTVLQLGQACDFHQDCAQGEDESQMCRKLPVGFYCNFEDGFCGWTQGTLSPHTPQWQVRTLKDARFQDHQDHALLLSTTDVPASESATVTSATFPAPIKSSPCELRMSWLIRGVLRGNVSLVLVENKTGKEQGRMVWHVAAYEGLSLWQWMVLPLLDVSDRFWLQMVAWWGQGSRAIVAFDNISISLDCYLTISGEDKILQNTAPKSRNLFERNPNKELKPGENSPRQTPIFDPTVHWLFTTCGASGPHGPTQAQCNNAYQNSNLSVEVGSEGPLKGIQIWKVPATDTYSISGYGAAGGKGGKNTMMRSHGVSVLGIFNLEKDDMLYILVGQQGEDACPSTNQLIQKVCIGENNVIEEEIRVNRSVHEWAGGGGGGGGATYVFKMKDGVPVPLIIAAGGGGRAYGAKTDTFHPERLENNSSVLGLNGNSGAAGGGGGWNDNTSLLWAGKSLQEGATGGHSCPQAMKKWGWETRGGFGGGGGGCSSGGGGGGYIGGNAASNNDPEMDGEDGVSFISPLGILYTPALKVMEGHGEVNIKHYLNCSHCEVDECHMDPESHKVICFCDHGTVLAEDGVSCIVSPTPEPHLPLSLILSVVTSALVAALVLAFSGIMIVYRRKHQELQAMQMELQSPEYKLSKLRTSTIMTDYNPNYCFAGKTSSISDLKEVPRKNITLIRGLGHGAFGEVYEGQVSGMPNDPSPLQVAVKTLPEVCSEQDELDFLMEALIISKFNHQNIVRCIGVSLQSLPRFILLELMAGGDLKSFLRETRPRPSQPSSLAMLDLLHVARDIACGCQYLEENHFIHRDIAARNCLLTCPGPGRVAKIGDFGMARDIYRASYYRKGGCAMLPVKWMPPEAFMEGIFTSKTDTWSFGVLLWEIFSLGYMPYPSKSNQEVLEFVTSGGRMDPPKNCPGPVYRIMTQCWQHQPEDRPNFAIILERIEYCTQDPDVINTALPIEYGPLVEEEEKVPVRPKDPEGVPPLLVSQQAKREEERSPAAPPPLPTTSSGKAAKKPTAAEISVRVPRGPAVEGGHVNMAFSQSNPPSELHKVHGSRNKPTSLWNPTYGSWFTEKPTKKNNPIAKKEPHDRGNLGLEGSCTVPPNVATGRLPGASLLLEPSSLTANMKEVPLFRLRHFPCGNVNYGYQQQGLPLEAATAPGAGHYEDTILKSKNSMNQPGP
`CC(C)[C@H](CO)Nc1nc(Nc2cccc(Cl)c2)c2ncn(C(C)C)c2n1` showed a residual activity of 100%.
`COc1ccc(-c2cnc3c(-c4ccsc4)cnn3c2)cc1` was tested, and the residual activity was 80.4%.
`CSc1nc(-c2ccc(F)cc2)c(-c2ccnc(NC(C)c3ccccc3)c2)[nH]1` (centres undefined) was tested, and the residual activity was 93.3%.
Compound `Clc1ccc(Nc2nnc(Cc3ccncc3)c3ccccc23)cc1` has a residual activity of 102%.

These compounds were tested against AURKA (human) (UniProt O14965) in the same assay as above. Details: compound 0.5 µM; ATP 10 µM.
For `CC(C)[C@H](CO)Nc1nc(Nc2cccc(Cl)c2)c2ncn(C(C)C)c2n1`, the residual activity was 80.6%.
Compound `COc1ccc(-c2cnc3c(-c4ccsc4)cnn3c2)cc1` has a residual activity of 68%.
`CSc1nc(-c2ccc(F)cc2)c(-c2ccnc(NC(C)c3ccccc3)c2)[nH]1` (centres undefined) was tested, and the residual activity was 99.9%.
`Clc1ccc(Nc2nnc(Cc3ccncc3)c3ccccc23)cc1` showed a residual activity of 79%.

The compounds below were run against CDK5 CDK5R1 p35 (human) (UniProt Q00535+Q15078) in the same assay as above. Details: compound 0.5 µM; ATP 10 µM.
With `CC(C)[C@H](CO)Nc1nc(Nc2cccc(Cl)c2)c2ncn(C(C)C)c2n1` the residual activity was 2.61%.
Work on `COc1ccc(-c2cnc3c(-c4ccsc4)cnn3c2)cc1` yielded a residual activity of 64.5%.
Compound `CSc1nc(-c2ccc(F)cc2)c(-c2ccnc(NC(C)c3ccccc3)c2)[nH]1` (centres undefined) has a residual activity of 101%.
With `Clc1ccc(Nc2nnc(Cc3ccncc3)c3ccccc23)cc1` the residual activity was 97.2%.

Each compound was assayed against CLK2 (human) (UniProt P49760) in the same assay as above. Details: compound 0.5 µM; ATP 10 µM.
In the case of `CC(C)[C@H](CO)Nc1nc(Nc2cccc(Cl)c2)c2ncn(C(C)C)c2n1`, the residual activity is reported as 21.9%.
`COc1ccc(-c2cnc3c(-c4ccsc4)cnn3c2)cc1` was tested, and the residual activity was 83.8%.
Compound `CSc1nc(-c2ccc(F)cc2)c(-c2ccnc(NC(C)c3ccccc3)c2)[nH]1` (centres undefined) has a residual activity of 102%.
Work on `Clc1ccc(Nc2nnc(Cc3ccncc3)c3ccccc23)cc1` yielded a residual activity of 87.6%.

Each compound was assayed against DAPK1 (human) (UniProt P53355) in the same assay as above. Details: compound 0.5 µM; ATP 10 µM.
For `CC(C)[C@H](CO)Nc1nc(Nc2cccc(Cl)c2)c2ncn(C(C)C)c2n1`, the residual activity was 99.7%.
Compound `COc1ccc(-c2cnc3c(-c4ccsc4)cnn3c2)cc1` has a residual activity of 103%.
For `CSc1nc(-c2ccc(F)cc2)c(-c2ccnc(NC(C)c3ccccc3)c2)[nH]1` (centres undefined), the residual activity was 101%.
Work on `Clc1ccc(Nc2nnc(Cc3ccncc3)c3ccccc23)cc1` yielded a residual activity of 105%.

What follows are compounds tested against EPHA8 (human) (UniProt P29322) in the same assay as above. Details: compound 0.5 µM; ATP 10 µM.
EPHA8 (human), sequence (P29322 whole entry, looked up): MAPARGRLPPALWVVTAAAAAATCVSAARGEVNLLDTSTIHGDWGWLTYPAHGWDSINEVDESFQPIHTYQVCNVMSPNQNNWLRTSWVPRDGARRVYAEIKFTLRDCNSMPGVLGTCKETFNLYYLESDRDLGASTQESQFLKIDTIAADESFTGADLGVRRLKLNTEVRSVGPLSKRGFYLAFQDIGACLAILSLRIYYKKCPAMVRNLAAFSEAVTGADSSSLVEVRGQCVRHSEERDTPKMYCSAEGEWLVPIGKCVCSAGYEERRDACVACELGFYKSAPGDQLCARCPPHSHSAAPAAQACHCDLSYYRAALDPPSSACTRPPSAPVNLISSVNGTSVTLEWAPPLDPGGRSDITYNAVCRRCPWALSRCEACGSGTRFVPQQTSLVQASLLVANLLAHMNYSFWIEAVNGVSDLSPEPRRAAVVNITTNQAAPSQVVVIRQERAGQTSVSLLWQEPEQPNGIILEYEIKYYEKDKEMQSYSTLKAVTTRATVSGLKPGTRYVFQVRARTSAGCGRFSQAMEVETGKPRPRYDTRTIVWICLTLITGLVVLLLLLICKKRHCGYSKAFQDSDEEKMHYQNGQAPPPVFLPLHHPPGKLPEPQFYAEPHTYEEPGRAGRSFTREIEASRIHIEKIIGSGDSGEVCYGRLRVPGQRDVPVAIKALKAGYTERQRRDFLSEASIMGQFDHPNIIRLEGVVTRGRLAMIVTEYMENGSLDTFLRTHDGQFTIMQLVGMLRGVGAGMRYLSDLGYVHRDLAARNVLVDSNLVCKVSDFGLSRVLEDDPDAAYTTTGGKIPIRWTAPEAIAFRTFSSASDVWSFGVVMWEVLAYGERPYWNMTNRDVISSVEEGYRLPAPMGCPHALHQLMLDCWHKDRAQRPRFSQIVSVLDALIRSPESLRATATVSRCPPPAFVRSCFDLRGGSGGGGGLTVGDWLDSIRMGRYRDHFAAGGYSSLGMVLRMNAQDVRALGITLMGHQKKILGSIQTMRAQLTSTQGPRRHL
With `CC(C)[C@H](CO)Nc1nc(Nc2cccc(Cl)c2)c2ncn(C(C)C)c2n1` the residual activity was 102%.
`COc1ccc(-c2cnc3c(-c4ccsc4)cnn3c2)cc1` was tested, and the residual activity was 90.3%.
For `CSc1nc(-c2ccc(F)cc2)c(-c2ccnc(NC(C)c3ccccc3)c2)[nH]1` (centres undefined), the residual activity was 82.2%.
Compound `Clc1ccc(Nc2nnc(Cc3ccncc3)c3ccccc23)cc1` has a residual activity of 100%.

The compounds below were run against EPHB4 (human) (UniProt P54760) in the same assay as above. Details: compound 0.5 µM; ATP 10 µM.
`CC(C)[C@H](CO)Nc1nc(Nc2cccc(Cl)c2)c2ncn(C(C)C)c2n1` was tested, and the residual activity was 71.7%.
Compound `COc1ccc(-c2cnc3c(-c4ccsc4)cnn3c2)cc1` has a residual activity of 87.5%.
Work on `CSc1nc(-c2ccc(F)cc2)c(-c2ccnc(NC(C)c3ccccc3)c2)[nH]1` (centres undefined) yielded a residual activity of 99.9%.
`Clc1ccc(Nc2nnc(Cc3ccncc3)c3ccccc23)cc1` gave a residual activity of 85.1%.

Each compound was assayed against FES (human) (UniProt P07332) in the same assay as above. Details: compound 0.5 µM; ATP 10 µM.
Compound `CC(C)[C@H](CO)Nc1nc(Nc2cccc(Cl)c2)c2ncn(C(C)C)c2n1` has a residual activity of 95.9%.
`COc1ccc(-c2cnc3c(-c4ccsc4)cnn3c2)cc1` was tested, and the residual activity was 98.2%.
Work on `CSc1nc(-c2ccc(F)cc2)c(-c2ccnc(NC(C)c3ccccc3)c2)[nH]1` (centres undefined) yielded a residual activity of 93.8%.
`Clc1ccc(Nc2nnc(Cc3ccncc3)c3ccccc23)cc1` showed a residual activity of 94.7%.

Each compound was assayed against FGFR1 (human) (UniProt P11362) in the same assay as above. Details: compound 0.5 µM; ATP 10 µM.
For `CC(C)[C@H](CO)Nc1nc(Nc2cccc(Cl)c2)c2ncn(C(C)C)c2n1`, the residual activity was 80.6%.
For `COc1ccc(-c2cnc3c(-c4ccsc4)cnn3c2)cc1`, the residual activity was 80.3%.
`CSc1nc(-c2ccc(F)cc2)c(-c2ccnc(NC(C)c3ccccc3)c2)[nH]1` (centres undefined) gave a residual activity of 97.6%.
In the case of `Clc1ccc(Nc2nnc(Cc3ccncc3)c3ccccc23)cc1`, the residual activity is reported as 97.2%.

The compounds below were run against FGR (human) (UniProt P09769) in the same assay as above. Details: compound 0.5 µM; ATP 10 µM.
FGR (human), sequence (P09769 whole entry, looked up): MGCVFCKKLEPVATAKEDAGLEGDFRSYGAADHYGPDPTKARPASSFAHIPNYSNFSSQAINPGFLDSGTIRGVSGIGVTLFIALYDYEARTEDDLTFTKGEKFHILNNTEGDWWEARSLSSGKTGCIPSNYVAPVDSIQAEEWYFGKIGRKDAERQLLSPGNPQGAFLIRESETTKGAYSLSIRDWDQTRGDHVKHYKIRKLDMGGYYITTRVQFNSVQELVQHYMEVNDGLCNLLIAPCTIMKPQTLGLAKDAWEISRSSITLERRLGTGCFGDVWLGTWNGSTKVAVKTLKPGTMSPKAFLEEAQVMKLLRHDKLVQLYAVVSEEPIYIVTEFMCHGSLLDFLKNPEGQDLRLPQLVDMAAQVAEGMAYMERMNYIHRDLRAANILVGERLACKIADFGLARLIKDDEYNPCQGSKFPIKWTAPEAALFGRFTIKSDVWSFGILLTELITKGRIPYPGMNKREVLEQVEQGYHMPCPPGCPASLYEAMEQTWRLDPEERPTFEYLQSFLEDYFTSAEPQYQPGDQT
With `CC(C)[C@H](CO)Nc1nc(Nc2cccc(Cl)c2)c2ncn(C(C)C)c2n1` the residual activity was 44.3%.
`COc1ccc(-c2cnc3c(-c4ccsc4)cnn3c2)cc1` showed a residual activity of 72.3%.
With `CSc1nc(-c2ccc(F)cc2)c(-c2ccnc(NC(C)c3ccccc3)c2)[nH]1` (centres undefined) the residual activity was 88.1%.
`Clc1ccc(Nc2nnc(Cc3ccncc3)c3ccccc23)cc1` showed a residual activity of 96.8%.

Each compound was assayed against FRK (human) (UniProt P42685) in the same assay as above. Details: compound 0.5 µM; ATP 10 µM.
Compound `CC(C)[C@H](CO)Nc1nc(Nc2cccc(Cl)c2)c2ncn(C(C)C)c2n1` has a residual activity of 90.2%.
With `COc1ccc(-c2cnc3c(-c4ccsc4)cnn3c2)cc1` the residual activity was 85.6%.
With `CSc1nc(-c2ccc(F)cc2)c(-c2ccnc(NC(C)c3ccccc3)c2)[nH]1` (centres undefined) the residual activity was 100%.
Work on `Clc1ccc(Nc2nnc(Cc3ccncc3)c3ccccc23)cc1` yielded a residual activity of 95.4%.

What follows are compounds tested against GRK5 (human) (UniProt P34947) in the same assay as above. Details: compound 0.5 µM; ATP 10 µM.
In the case of `CC(C)[C@H](CO)Nc1nc(Nc2cccc(Cl)c2)c2ncn(C(C)C)c2n1`, the residual activity is reported as 101%.
`COc1ccc(-c2cnc3c(-c4ccsc4)cnn3c2)cc1` was tested, and the residual activity was 97.4%.
`CSc1nc(-c2ccc(F)cc2)c(-c2ccnc(NC(C)c3ccccc3)c2)[nH]1` (centres undefined) gave a residual activity of 103%.
`Clc1ccc(Nc2nnc(Cc3ccncc3)c3ccccc23)cc1` gave a residual activity of 110%.

What follows are compounds tested against GSG2 (human) (UniProt Q8TF76) in the same assay as above. Details: compound 0.5 µM; ATP 10 µM.
`CC(C)[C@H](CO)Nc1nc(Nc2cccc(Cl)c2)c2ncn(C(C)C)c2n1` showed a residual activity of 93.6%.
For `COc1ccc(-c2cnc3c(-c4ccsc4)cnn3c2)cc1`, the residual activity was 77.2%.
`CSc1nc(-c2ccc(F)cc2)c(-c2ccnc(NC(C)c3ccccc3)c2)[nH]1` (centres undefined) was tested, and the residual activity was 96.3%.
In the case of `Clc1ccc(Nc2nnc(Cc3ccncc3)c3ccccc23)cc1`, the residual activity is reported as 70%.

The compounds below were run against IKBKE (human) (UniProt Q14164) in the same assay as above. Details: compound 0.5 µM; ATP 10 µM.
IKBKE (human), sequence (Q14164 whole entry, looked up): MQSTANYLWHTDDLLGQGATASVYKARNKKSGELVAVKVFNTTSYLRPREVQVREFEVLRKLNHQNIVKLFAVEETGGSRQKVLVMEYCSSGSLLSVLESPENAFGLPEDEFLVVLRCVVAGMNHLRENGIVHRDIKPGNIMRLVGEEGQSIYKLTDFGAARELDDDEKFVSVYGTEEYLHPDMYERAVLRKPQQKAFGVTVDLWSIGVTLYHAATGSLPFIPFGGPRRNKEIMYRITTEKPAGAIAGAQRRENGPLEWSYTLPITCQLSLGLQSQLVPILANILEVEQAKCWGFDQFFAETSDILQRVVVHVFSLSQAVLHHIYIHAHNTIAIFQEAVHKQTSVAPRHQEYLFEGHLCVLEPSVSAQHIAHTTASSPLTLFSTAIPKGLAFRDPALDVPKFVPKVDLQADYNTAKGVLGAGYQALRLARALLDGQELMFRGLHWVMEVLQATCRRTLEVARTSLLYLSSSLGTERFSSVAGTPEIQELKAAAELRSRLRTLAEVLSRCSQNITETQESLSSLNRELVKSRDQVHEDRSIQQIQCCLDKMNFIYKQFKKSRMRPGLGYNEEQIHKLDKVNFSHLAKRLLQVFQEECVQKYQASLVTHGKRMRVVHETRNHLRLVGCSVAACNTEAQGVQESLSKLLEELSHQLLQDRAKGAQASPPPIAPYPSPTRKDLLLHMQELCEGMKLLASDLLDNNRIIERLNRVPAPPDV
Work on `CC(C)[C@H](CO)Nc1nc(Nc2cccc(Cl)c2)c2ncn(C(C)C)c2n1` yielded a residual activity of 99.2%.
With `COc1ccc(-c2cnc3c(-c4ccsc4)cnn3c2)cc1` the residual activity was 85.5%.
In the case of `CSc1nc(-c2ccc(F)cc2)c(-c2ccnc(NC(C)c3ccccc3)c2)[nH]1` (centres undefined), the residual activity is reported as 84%.
`Clc1ccc(Nc2nnc(Cc3ccncc3)c3ccccc23)cc1` showed a residual activity of 95.7%.

These compounds were tested against INSR (human) (UniProt P06213) in the same assay as above. Details: compound 0.5 µM; ATP 10 µM.
`CC(C)[C@H](CO)Nc1nc(Nc2cccc(Cl)c2)c2ncn(C(C)C)c2n1` was tested, and the residual activity was 83%.
`COc1ccc(-c2cnc3c(-c4ccsc4)cnn3c2)cc1` showed a residual activity of 92.5%.
`CSc1nc(-c2ccc(F)cc2)c(-c2ccnc(NC(C)c3ccccc3)c2)[nH]1` (centres undefined) gave a residual activity of 100%.
`Clc1ccc(Nc2nnc(Cc3ccncc3)c3ccccc23)cc1` showed a residual activity of 99.9%.

The compounds below were run against JAK1 JH1 catalytic (human) (UniProt P23458) in the same assay as above. Details: compound 0.5 µM; ATP 10 µM.
With `CC(C)[C@H](CO)Nc1nc(Nc2cccc(Cl)c2)c2ncn(C(C)C)c2n1` the residual activity was 108%.
In the case of `COc1ccc(-c2cnc3c(-c4ccsc4)cnn3c2)cc1`, the residual activity is reported as 87%.
`CSc1nc(-c2ccc(F)cc2)c(-c2ccnc(NC(C)c3ccccc3)c2)[nH]1` (centres undefined) was tested, and the residual activity was 104%.
In the case of `Clc1ccc(Nc2nnc(Cc3ccncc3)c3ccccc23)cc1`, the residual activity is reported as 107%.

These compounds were tested against MAP3K7 TAB1 (human) (UniProt O43318+Q15750) in the same assay as above. Details: compound 0.5 µM; ATP 10 µM.
For `CC(C)[C@H](CO)Nc1nc(Nc2cccc(Cl)c2)c2ncn(C(C)C)c2n1`, the residual activity was 71.1%.
Compound `COc1ccc(-c2cnc3c(-c4ccsc4)cnn3c2)cc1` has a residual activity of 97.6%.
With `CSc1nc(-c2ccc(F)cc2)c(-c2ccnc(NC(C)c3ccccc3)c2)[nH]1` (centres undefined) the residual activity was 90.5%.
For `Clc1ccc(Nc2nnc(Cc3ccncc3)c3ccccc23)cc1`, the residual activity was 99.6%.

What follows are compounds tested against MAP4K5 (human) (UniProt Q9Y4K4) in the same assay as above. Details: compound 0.5 µM; ATP 10 µM.
`CC(C)[C@H](CO)Nc1nc(Nc2cccc(Cl)c2)c2ncn(C(C)C)c2n1` was tested, and the residual activity was 97.5%.
`COc1ccc(-c2cnc3c(-c4ccsc4)cnn3c2)cc1` was tested, and the residual activity was 60.3%.
In the case of `CSc1nc(-c2ccc(F)cc2)c(-c2ccnc(NC(C)c3ccccc3)c2)[nH]1` (centres undefined), the residual activity is reported as 85.6%.
`Clc1ccc(Nc2nnc(Cc3ccncc3)c3ccccc23)cc1` was tested, and the residual activity was 101%.

What follows are compounds tested against MAPK11 (human) (UniProt Q15759) in the same assay as above. Details: compound 0.5 µM; ATP 10 µM.
MAPK11 (human), sequence (Q15759 whole entry, looked up): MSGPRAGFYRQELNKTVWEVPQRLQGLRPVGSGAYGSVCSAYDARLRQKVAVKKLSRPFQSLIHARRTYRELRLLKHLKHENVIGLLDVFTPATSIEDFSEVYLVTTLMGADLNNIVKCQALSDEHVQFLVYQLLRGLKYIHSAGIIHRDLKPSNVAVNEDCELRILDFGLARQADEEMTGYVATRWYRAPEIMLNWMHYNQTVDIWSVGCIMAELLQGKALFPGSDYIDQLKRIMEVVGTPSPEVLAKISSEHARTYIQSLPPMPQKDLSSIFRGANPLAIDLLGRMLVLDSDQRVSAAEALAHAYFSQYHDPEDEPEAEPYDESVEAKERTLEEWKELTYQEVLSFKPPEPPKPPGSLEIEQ
With `CC(C)[C@H](CO)Nc1nc(Nc2cccc(Cl)c2)c2ncn(C(C)C)c2n1` the residual activity was 109%.
In the case of `COc1ccc(-c2cnc3c(-c4ccsc4)cnn3c2)cc1`, the residual activity is reported as 84.1%.
`CSc1nc(-c2ccc(F)cc2)c(-c2ccnc(NC(C)c3ccccc3)c2)[nH]1` (centres undefined) gave a residual activity of 41.7%.
In the case of `Clc1ccc(Nc2nnc(Cc3ccncc3)c3ccccc23)cc1`, the residual activity is reported as 96.9%.

Each compound was assayed against MAPK13 (human) (UniProt O15264) in the same assay as above. Details: compound 0.5 µM; ATP 10 µM.
MAPK13 (human), sequence (O15264 whole entry, looked up): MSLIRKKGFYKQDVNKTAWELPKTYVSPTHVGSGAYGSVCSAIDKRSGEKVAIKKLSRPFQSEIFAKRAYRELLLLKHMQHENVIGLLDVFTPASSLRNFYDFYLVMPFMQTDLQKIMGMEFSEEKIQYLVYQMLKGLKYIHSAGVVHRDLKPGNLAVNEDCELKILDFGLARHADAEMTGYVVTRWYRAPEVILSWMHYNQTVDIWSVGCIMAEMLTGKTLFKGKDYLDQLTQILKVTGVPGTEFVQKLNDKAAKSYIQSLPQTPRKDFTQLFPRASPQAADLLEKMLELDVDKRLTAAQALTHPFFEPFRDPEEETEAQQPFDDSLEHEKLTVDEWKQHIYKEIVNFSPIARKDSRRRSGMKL
`CC(C)[C@H](CO)Nc1nc(Nc2cccc(Cl)c2)c2ncn(C(C)C)c2n1` gave a residual activity of 122%.
`COc1ccc(-c2cnc3c(-c4ccsc4)cnn3c2)cc1` showed a residual activity of 93.5%.
Work on `CSc1nc(-c2ccc(F)cc2)c(-c2ccnc(NC(C)c3ccccc3)c2)[nH]1` (centres undefined) yielded a residual activity of 93.9%.
Work on `Clc1ccc(Nc2nnc(Cc3ccncc3)c3ccccc23)cc1` yielded a residual activity of 88.9%.

The compounds below were run against MAPK14 (human) (UniProt Q16539) in the same assay as above. Details: compound 0.5 µM; ATP 10 µM.
MAPK14 (human), sequence (Q16539 whole entry, looked up): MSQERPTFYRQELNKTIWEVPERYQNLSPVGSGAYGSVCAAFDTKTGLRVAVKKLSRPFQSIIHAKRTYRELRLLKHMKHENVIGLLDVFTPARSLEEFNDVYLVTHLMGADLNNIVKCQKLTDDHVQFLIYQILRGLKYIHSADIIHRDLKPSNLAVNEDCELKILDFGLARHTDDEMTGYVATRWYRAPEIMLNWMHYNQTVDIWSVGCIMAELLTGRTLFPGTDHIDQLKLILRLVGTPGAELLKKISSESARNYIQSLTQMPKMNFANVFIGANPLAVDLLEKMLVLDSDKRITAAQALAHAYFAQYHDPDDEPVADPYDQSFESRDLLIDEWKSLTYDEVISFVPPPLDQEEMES
With `CC(C)[C@H](CO)Nc1nc(Nc2cccc(Cl)c2)c2ncn(C(C)C)c2n1` the residual activity was 99.4%.
For `COc1ccc(-c2cnc3c(-c4ccsc4)cnn3c2)cc1`, the residual activity was 120%.
Work on `CSc1nc(-c2ccc(F)cc2)c(-c2ccnc(NC(C)c3ccccc3)c2)[nH]1` (centres undefined) yielded a residual activity of 7.64%.
`Clc1ccc(Nc2nnc(Cc3ccncc3)c3ccccc23)cc1` was tested, and the residual activity was 98.2%.
